# According to patent US20230241257A1, “BIOTIN-MODIFIED DIMER AND USE THEREOF” (THE UNIVERSITY OF TOKYO, priority 2020, published 2023):
# Tests used:
# [1] = system: human stomach cancer cells (MKN-45); assay: Experiment 3: pharmacokinetics of Cupid-scFv antibody (48 h before)+^211At-psyche-B in MKN-45 cancer-bearing mouse models; format: in vivo, mice (BALB/cSlc nu/nu)
# Description: The present experiment highly used CEA-expressing human stomach cancer cells (MKN-45). 9-week-old male immunodeficient mice (BALB/cSlc nu/nu) were used. MKN-45 cells (1×10^7/0.1 ml) were transplanted into the mice's subcutis on the right shoulder dorsal side to produce cancer-bearing mouse models. The mice were divided into four groups when the tumor volume became a predetermined size (on Day 12 after the transplantation). A Cupid-scFv antibody was administered in 100 μmol/0.1 ml via the caudal vein of each mouse. Forty-eight hours after administration of the Cupid-scFv antibody, ^211At-psyche-B (about 0.25 MBq/100 ml) was administered via the caudal vein of the mice. One minute, 1 hour, 6 hours, and 24 hours after administration of the ^211At-psyche-B, the mice were euthanized by collecting whole blood from the heart of each mouse under isoflurane anesthesia, and tumor tissues and normal tissues/organs were then excised. Normal tissues/organs: skin (lower right limb), muscle (right gastrocnemius muscle), heart, lung, spleen, pancreas, white fat (upper portion of right side testis), testis (both sides), stomach, stomach contents, small intestine (including contents), large intestine (including contents), liver, brown fat (interscapular), submandibular gland, thyroid gland (together with trachea), bone (right femur), cerebrum, eyeballs (both sides), bladder, and urine; the remaining residues were divided into three equal parts, and the three equal parts were defined to be residue-1, residue-2, and residue-3. After that, the weights of blood, plasma, urine, tumor, and normal tissues/organs were measured, and the radioactivity thereof was then measured using a γ counter. The amounts of the ^211At-psyche-B (radioactivity) accumulated in the blood, plasma, urine, tumor, and normal tissues/organs were calculated. That is to say, the rates (% ID/g) of the ^211At-psyche-B accumulated per unit weight (g) of the blood, plasma, urine, tumor, and normal tissues/organs, in the administered ^211At-psyche-B, were shown. Regarding accumulation of the ^211At-psyche-B in the thyroid gland, since the weight of the thyroid gland could not be precisely measured, it was shown that the rate (% ID) of the ^211At-psyche-B accumulated in the thyroid gland in the administered ^211At-psyche-B.
# [2] = system: human stomach cancer cells (MKN-45); assay: Experiment 4: pharmacokinetics of ^211At-psyche-B in the absence of Cupid-scFv antibody in MKN-45 cancer-bearing mouse models; format: in vivo, mice (BALB/cSlc nu/nu); conditions: no Cupid-scFv antibody
# Description: The present experiment used human stomach cancer cells (MKN-45) expressing carcinoembryonic antigen (CEA). 9-week-old male immunodeficient mice (BALB/cSlc nu/nu) were used. MKN-45 cells (1×10^7/0.1 ml) were transplanted into the mice's subcutis on the right shoulder dorsal side to produce cancer-bearing mouse models. The mice were divided into four groups when the tumor volume became a predetermined size (on Day 14 after the transplantation), and ^211At-psyche-B (about 0.25 MBq/[…]) was administered via the caudal vein of each mouse. One minute, 1 hour, 6 hours, and 24 hours after administration of the ^211At-psyche-B, the mice were euthanized by collecting whole blood from the heart of each mouse under isoflurane anesthesia, and tumor tissues and normal tissues/organs were then excised. Normal tissues/organs: skin (lower right limb), muscle (right gastrocnemius), heart, lung, spleen, pancreas, white fat (upper portion of right side testis), testis (both sides), stomach, stomach contents, small intestine (including contents), large intestine (including contents), liver, brown fat (interscapular), submandibular gland, thyroid gland (together with trachea), bone (right femur), brain, eyeball, bladder, and urine; the remaining residues were divided into three equal parts, and the three equal parts were defined to be residue-1, residue-2, and residue-3. After that, the weights of blood, plasma, urine, tumor, and normal tissues/organs were measured, and the radioactivity thereof was then measured using a γ counter. The amounts of the ^211At-psyche-B (radioactivity) accumulated in the blood, plasma, urine, tumor, and normal tissues/organs were calculated. That is to say, the rates (% ID/g) of the ^211At-psyche-B accumulated per unit weight (g) of the blood, plasma, urine, tumor, and normal tissues/organs, in the administered ^211At-psyche-B, were shown. Regarding accumulation of the ^211At-psyche-B in the thyroid gland, since the weight of the thyroid gland could not be precisely measured, it was shown that the rate (% ID) of the ^211At-psyche-B accumulated in the thyroid gland in the administered ^211At-psyche-B.
smiles,measurement,setting,value
N=C1N[C@H]2[C@H](CS[C@H]2CCCCC(=O)NCCCCCC(=O)Nc2cc(NC(=O)CCCCCNC(=O)CCCC[C@@H]3SC[C@@H]4NC(=N)N[C@@H]43)cc(C(=O)NCCOCCOCCNC(=O)c3cccc([211At])c3)c2)N1 [^211At-psyche-B],Accumulation in the kidney,[1]; after 1 minute,62.3±9.8 % ID/g
same,Accumulation in the liver,[1]; after 1 minute,41.4±6.2 % ID/g
same,Accumulation in the lung,[1]; after 1 minute,10.2±1.6 % ID/g
same,Accumulation in the spleen,[1]; after 1 minute,3.5±0.1 % ID/g
same,Accumulation in the tumor,[1]; after 1 minute,0.5±0.1 % ID/g
same,Clearance from the blood,[1]; after 1 minute,30.7±2.2 % ID/g
same,tumor-to-blood ratio,[1]; after 1 minute,0.02±0.00
same,tumor-to-muscle ratio,[1]; after 1 minute,1.0±0.3
same,Accumulation in the kidney,[1]; after 1 hour,38.0±4.5 % ID/g
same,Accumulation in the liver,[1]; after 1 hour,25.6±2.5 % ID/g
same,Accumulation in the lung,[1]; after 1 hour,12.2±0.9 % ID/g
same,Accumulation in the spleen,[1]; after 1 hour,8.5±0.6 % ID/g
same,Accumulation in the tumor,[1]; after 1 hour,3.2±0.7 % ID/g
same,Clearance from the blood,[1]; after 1 hour,30.8±5.5 % ID/g
same,tumor-to-blood ratio,[1]; after 1 hour,0.11±0.02
same,tumor-to-muscle ratio,[1]; after 1 hour,4.7±0.4
same,Accumulation in the kidney,[1]; after 6 hours,14.9±0.8 % ID/g
same,Accumulation in the liver,[1]; after 6 hours,23.6±2.3 % ID/g
same,Accumulation in the lung,[1]; after 6 hours,8.5±0.9 % ID/g
same,Accumulation in the spleen,[1]; after 6 hours,11.1±0.7 % ID/g
same,Accumulation in the tumor,[1]; after 6 hours,9.9±2.9 % ID/g
same,Clearance from the blood,[1]; after 6 hours,19.0±2.6 % ID/g
same,tumor-to-blood ratio,[1]; after 6 hours,0.51±0.09
same,tumor-to-muscle ratio,[1]; after 6 hours,13.1±3.5
same,Accumulation in the thyroid gland,[1]; after 24 h,0.16±0.02 % ID
same,Accumulation in the kidney,[1]; after 24 hours,6.6±0.2%
same,Accumulation in the liver,[1]; after 24 hours,19.3±0.6%
same,Accumulation in the lung,[1]; after 24 hours,3.5±0.2%
same,Accumulation in the spleen,[1]; after 24 hours,10.2±1.6%
same,Accumulation in the tumor,[1]; after 24 hours,11.3±3.3%
same,Clearance from the blood,[1]; after 24 hours,2.6±0.5 % ID/g
same,tumor-to-blood ratio,[1]; after 24 hours,4.38±0.85
same,tumor-to-muscle ratio,[1]; after 24 hours,23.2±7.2
same,Accumulation in the blood,[2]; after 1 minute,10.4±1.1 % ID/g
same,Accumulation in the kidney,[2]; after 1 minute,61.4±6.5 % ID/g
same,Accumulation in the liver,[2]; after 1 minute,49.1±6.2 % ID/g
same,Accumulation in the tumor,[2]; after 1 minute,0.3±0.05 % ID/g
same,Accumulation in the blood,[2]; after 1 hour,3.8±0.3 % ID/g
same,Accumulation in the kidney,[2]; after 1 hour,57.2±3.1 % ID/g
same,Accumulation in the liver,[2]; after 1 hour,35.3±3.3 % ID/g
same,Accumulation in the tumor,[2]; after 1 hour,1.0±0.1 % ID/g
same,Accumulation in the blood,[2]; after 6 hours,0.4±0.1 % ID/g
same,Accumulation in the kidney,[2]; after 6 hours,17.7±1.9 % ID/g
same,Accumulation in the liver,[2]; after 6 hours,16.8±0.7 % ID/g
same,Accumulation in the thyroid gland,[2]; after 6 hours,0.16±0.06 % ID
same,Accumulation in the tumor,[2]; after 6 hours,1.0±0.1 % ID/g
same,Accumulation in the blood,[2]; after 24 hours,0.2±0.04 % ID/g
same,Accumulation in the kidney,[2]; after 24 hours,5.1±0.9%
same,Accumulation in the liver,[2]; after 24 hours,9.0±1.4%
same,Accumulation in the tumor,[2]; after 24 hours,0.3±0.02%
